According to PubChem BioAssay AID1671204:

Target: Tyrosine-protein kinase ABL1 (Homo sapiens) (UniProt P00519)
Test: inhibition of ABL1 tyrosine kinase activity – biochemical, Z'-LYTE FRET, direct format, recombinant human, dose response (AID 1671204)
Settings: Z'-LYTE FRET kinase assay

Sequence of Tyrosine-protein kinase ABL1 (Homo sapiens) (P00519 whole entry, looked up): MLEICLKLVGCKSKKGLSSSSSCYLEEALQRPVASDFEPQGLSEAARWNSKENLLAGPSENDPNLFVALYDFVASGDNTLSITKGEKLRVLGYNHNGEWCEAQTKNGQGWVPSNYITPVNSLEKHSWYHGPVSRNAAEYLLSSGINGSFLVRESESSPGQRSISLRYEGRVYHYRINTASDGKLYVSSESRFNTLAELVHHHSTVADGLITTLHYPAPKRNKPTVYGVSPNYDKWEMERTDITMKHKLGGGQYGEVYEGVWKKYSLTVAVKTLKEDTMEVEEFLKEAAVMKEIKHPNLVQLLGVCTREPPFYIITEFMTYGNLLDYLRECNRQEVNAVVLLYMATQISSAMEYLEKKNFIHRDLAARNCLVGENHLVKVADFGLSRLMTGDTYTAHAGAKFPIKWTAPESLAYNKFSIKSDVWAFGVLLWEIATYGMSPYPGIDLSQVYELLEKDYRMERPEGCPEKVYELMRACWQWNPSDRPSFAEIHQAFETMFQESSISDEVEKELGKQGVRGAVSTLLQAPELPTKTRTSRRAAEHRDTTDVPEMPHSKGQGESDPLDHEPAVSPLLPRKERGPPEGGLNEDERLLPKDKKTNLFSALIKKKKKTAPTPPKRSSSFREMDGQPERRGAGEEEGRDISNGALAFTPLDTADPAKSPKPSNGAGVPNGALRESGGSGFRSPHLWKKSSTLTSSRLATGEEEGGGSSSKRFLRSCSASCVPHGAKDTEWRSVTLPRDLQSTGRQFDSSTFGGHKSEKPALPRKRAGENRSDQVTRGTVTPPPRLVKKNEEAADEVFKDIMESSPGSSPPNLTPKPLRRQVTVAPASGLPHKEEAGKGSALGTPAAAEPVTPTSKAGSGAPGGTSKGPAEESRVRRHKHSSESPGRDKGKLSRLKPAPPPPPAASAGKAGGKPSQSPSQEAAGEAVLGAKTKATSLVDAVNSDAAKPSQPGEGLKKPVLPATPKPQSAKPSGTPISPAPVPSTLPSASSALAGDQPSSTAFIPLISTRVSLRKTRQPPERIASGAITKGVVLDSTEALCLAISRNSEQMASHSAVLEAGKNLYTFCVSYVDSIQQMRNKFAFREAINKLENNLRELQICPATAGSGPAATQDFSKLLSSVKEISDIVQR

IC50: 434 nM
Compound: COc1cc2ncnc(Nc3cccc(Cl)c3)c2cc1OC
